Experimental data reported in US6482815B1 (priority 1999, dated 2002).
Where two headings read alike, the source gives them in different places.

How the values were obtained:
NALM-6 [1] = assay: cells; format: cell-based; conditions: Homo sapiens, NALM-6, read-out: NALM-6 IC50
MOLT-3 [2] = assay: cells; format: cell-based; conditions: Homo sapiens, MOLT-3, read-out: MOLT-3 IC50
ALL1 = assay: cells; format: cell-based; conditions: Homo sapiens, read-out: ALL1 IC50
RS4;11 = assay: cells; format: cell-based; conditions: Homo sapiens, RS4-11, read-out: RS4;11 IC50
NALM-6 [3] = assay: Anti-proliferative activity (colony counts), NALM-6; format: cell-based, human
Text: (§1) The dose-responsive anti-proliferative activity of various organic arsenic acid substituted compounds against leukemic cell lines (NALM-6 and MOLT-3) is shown below in Table 3. FIGS. 3A-3F show dose response curves in ALL1, NALM-6, and MOLT-3 cells.

MOLT-3 [4] = assay: Anti-proliferative activity (colony counts), MOLT-3; format: cell-based, human
Text: as §1

NALM-6 [5] = assay: In situ detection of apoptosis (nick-end-labeling, ApopTag), NALM-6; format: cell-based, human; conditions: NALM-6, WHI-P381 2 μg/ml, 36 hour incubation (FIG. 1B)
Experimental: (§2) Assay for apoptosis was performed by the in situ nick-end-labeling method using an ApopTag in situ detection kit (Oncor, Gaithersburg, Md.) according to the manufacturer's recommendations. Exponentially growing cells (NALM-6 and MOLT-3) were seeded in 6-well tissue culture plates at a density of 50×10^4 cells/well and cultured for 36 hours at 37° C. in a humidified 5% CO2 atmosphere. The supernatant culture medium was carefully aspirated and replaced with fresh medium alone or fresh medium containing WHI-P381 at a concentration of 2 μg/ml.
(§3) After a 36 hour incubation at 37° C. in a humidified 5% CO2 incubator, the supernatants were carefully aspirated and the cells were treated for 1-2 minutes with 0.1% trypsin. The detached cells were collected into a 15 ml centrifuge tube, washed with medium and pelleted by centrifugation at 1000 rpm for 5 minutes. Cells were resuspended in 50 μl of PBS, transferred to poly-L-lysine coated coverslips and allowed to attach for 15 minutes. The cells were washed once with PBS and incubated with equilibration buffer for 10 minutes at room temperature.
(§4) After removal of the equilibration buffer, cells were incubated for 1 hour at 37° C. with the reaction mixture containing terminal deoxynucleotidyl transferase (TdT) and digoxigenin-11-UTP for labeling of exposed 3′-hydroxyl ends of fragmented nuclear DNA. […]

MOLT-3 [6] = assay: In situ detection of apoptosis (nick-end-labeling, ApopTag), MOLT-3; format: cell-based, human; conditions: MOLT-3, WHI-P381 2 μg/ml, 36 hour incubation (FIG. 1D)
Experimental: as §2, §3, §4

BT20 [7] = test system: BT20
BT20 [8] = assay: cells; conditions: Homo sapiens, BT-20, read-out: BT20 IC50
[9] = test system: leukemic cell lines (NALM-6, MOLT-3, ALL1, RS4;11); assay: cells; conditions: Homo sapiens, read-out: IC50 values in leukemic cell lines
primary leukemic cells = assay: MTT cytotoxicity against primary leukemic cells; conditions: cells from 5 leukemia patients, FIGS. 4A-4E
NALM-6 cells = assay: MTT cytotoxicity over 1-4 days versus arsenic trioxide, NALM-6; conditions: for IC50: Homo sapiens
[10] = NALM-6, concentration 0.1 (mM as printed)
[11] = NALM-6, concentration 1 (mM as printed)
[12] = NALM-6, concentration 10 (mM as printed)
[13] = NALM-6, concentration 100 (mM as printed)
[14] = MOLT-3, concentration 0.1 (mM as printed)
[15] = MOLT-3, concentration 1 (mM as printed)
[16] = MOLT-3, concentration 10 (mM as printed)
[17] = MOLT-3, concentration 100 (mM as printed)

## CSc1nccc(Nc2ccccc2[As](=O)(O)O)n1 [WHI-P381, 2-Methylthio4-(2′-phenylarsenic acid)-aminopyrimidine]
NALM-6 [1]
  IC50: < 1900 nM
MOLT-3 [2]
  IC50: < 1900 nM
ALL1
  IC50: < 1900 nM
RS4;11
  IC50: < 1900 nM
NALM-6 [3]; [10]
  % Inhibition: 100%
  Mean No. of Colonies/10^6 Cells: 0 Colonies/10^6 Cells
NALM-6 [3]; [11]
  % Inhibition: 100%
  Mean No. of Colonies/10^6 Cells: 0 Colonies/10^6 Cells
NALM-6 [3]; [12]
  % Inhibition: 100%
  Mean No. of Colonies/10^6 Cells: 0 Colonies/10^6 Cells
NALM-6 [3]; [13]
  % Inhibition: 100%
  Mean No. of Colonies/10^6 Cells: 0 Colonies/10^6 Cells
MOLT-3 [4]; [14]
  % Inhibition: 70.2%
  Mean No. of Colonies/10^6 Cells: 429(202, 656) Colonies/10^6 Cells
MOLT-3 [4]; [15]
  % Inhibition: 100%
  Mean No. of Colonies/10^6 Cells: 0 Colonies/10^6 Cells
MOLT-3 [4]; [16]
  % Inhibition: 100%
  Mean No. of Colonies/10^6 Cells: 0 Colonies/10^6 Cells
MOLT-3 [4]; [17]
  % Inhibition: 100%
  Mean No. of Colonies/10^6 Cells: 0 Colonies/10^6 Cells
NALM-6 [5]
  apoptosis: fluorescence versus untreated cells: much greater Fluorescence
MOLT-3 [6]
  apoptosis: fluorescence versus untreated cells: much greater Fluorescence
other
  melting point: 225 to 228 °C
BT20 [7]
  cytotoxic against the breast cancer cell line BT20 (in words): cytotoxic
BT20 [8]
  IC50: 17300 nM
[9]
  IC50: ≤ 1900 nM
Primary leukemic cells
  cytotoxic activity against primary leukemic cells (in words): susceptible to the cytotoxic effects
NALM-6 cells; NALM-6, 24 h, read-out: Cytotoxicity against NALM-6 cells IC50, Day 1
  IC50: 2030 nM
NALM-6 cells; NALM-6, 48 h, read-out: Cytotoxicity against NALM-6 cells IC50, Day 2
  IC50: 850 nM
NALM-6 cells; NALM-6, 72 h, read-out: Cytotoxicity against NALM-6 cells IC50, Day 3
  IC50: 700 nM
NALM-6 cells; NALM-6, 96 h, read-out: Cytotoxicity against NALM-6 cells IC50, Day 4
  IC50: 680 nM
NALM-6 cells; NALM-6, 0.07 μM to 5 μM, 1-4 days, FIGS. 2A-2D
  cytotoxicity compared with arsenic trioxide (in words): more cytotoxic than arsenic trioxide
